Patent US11471460B2, “Autophagy modulators for use in treating cancer” (The United States of America,as represented by the …, priority 2017, dated 2022)
Entries after “also recorded” stand apart in the source; their conditions may differ.

Columns and labels:
melanoma A375 tumors [1] = test: Expansion of preformed A375 tumors in inbred nude mice; type: in vivo; conditions: 20 or 40 mg/kg intraperitoneally each day for 14 days
Procedure: (A) Melanoma A375 cells were cultured to 80% confluency and then inoculated subcutaneously into both flanks of inbred nude mice. Palpable tumors (˜40-50 mm^3) appeared within 7 days. (B) Either vehicle or 20 or 40 mg of compound 1 per kg of the mouse was injected intraperitoneally each day for a period of 14 days. Compound 1 was dissolved in sunflower seed oil. Tumors were excised on day 21. […] Error bars indicate the SEM for 6 tumors.
To determine whether or not compound 1 could inhibit expansion of a preformed tumor that arose from autophagy-dependent cancer cells, melanoma A375 cells were inoculated into the flanks of immuno-compromised mice and allowed to form a palpable tumor. Mice were then injected intraperitoneally once a day with varying amount of compound 1.

melanoma A375 cells [2] = test: A375 cell viability (CellTiter-Glo ATP, trypan blue live cells); type: cell-based, human; conditions: 0.1 μM
Procedure: To reveal viability, cells were seeded into 96-well plates (1,000 cells/well), and the indicated compound was added the following day. Cells were cultured for four days before quantification of total cellular ATP. […] In separate 12-well plates, attached cells were collected by trypsinization, combined with unattached cells, and stained with trypan blue to identify dead cells. Vehicle was plotted as 0.001 μM compound in order to apply a logarithmic scale. Data were plotted as the mean±SEM for three independent experiments.
Cells were obtained from the American Type Culture Collection. BORCS5-KO HeLa cells have been described previously. Osteosarcoma U2OS were routinely seeded in 6-well plates (0.5×10^5 cells/well) and cultured in Dulbecco's Modified Eagle's medium supplemented with L-Glutamine, 4.5 g/L Glucose, Sodium Pyruvate, Phenol Red, and either heat-inactivated or normal 10% fetal calf serum at 37° C. in 5% CO2. Approximately 15-19 hours later, the indicated compound was added in 1:1000 dilutions. […] Melanoma A375, embryonic kidney 293T and human foreskin fibroblast Hs27 cells were cultured in the same medium, except that cells were seeded into 12-well plates at 10^3 cells/well.

melanoma A375 tumors [3] = test: Expansion of preformed A375 tumors in outbred nude mice; type: in vivo
Procedure: Melanoma A375 cells were inoculated subcutaneously into outbred nude mice on day 0 (broad arrow). Intraperitoneal injections (arrows) of vehicle (open circles), 20 mg compound 1 (grey circles), or 40 mg compound 1/kg (solid circle) of mouse weight were administered daily beginning with day 7 when palpable tumors were present. Each group contained three mice. SEMs are indicated. Error bars indicate the SEM for 6 tumors.
The genetic diversity of human populations is greater than the genetic diversity of inbred animals. Therefore, the experiment in FIG. 20 with inbred nude mice was repeated with outbred nude mice.

[4] = system: breast adenocarcinoma cells; test: Viability of breast adenocarcinoma cells; type: cell-based; conditions: Homo sapiens; breast adenocarcinoma cells; read-out: EC50
Procedure: FIG. 18 summarizes results from 13 human cell lines. All cells were seeded at the same cell density in a rich culture medium and assayed under identical conditions. Compound 1 efficacy is the ratio of cell viability with compound 1 to cell viability with chloroquine derivatives.

U2OS cells = test: Size of LAMP1-RFP-labeled vacuoles (lysosomes), confocal microscopy; type: cell-based, human
Procedure: LAMP1 protein is a lysosomal membrane marker. Nuclei were stained with DAPI. Therefore, the enlarged cytoplasmic vacuoles induced by compounds from this invention are lysosomes.
The selection of circular, enlarged, lysosomes was carried out using a size mask of 0.5 to 5.0 μm^2. Punctate lysosomes were selected with a size mask of 0.1 to 1.5 μm^2. Thresholds were the same for all images. Clustered lysosomes were not included in the size analysis. The mean area (μm^2)±SEM was plotted (O). From 235 to 545 lysosomes were measured for each time point. The number of lysosomes per μm^2 (E) was determined at the beginning and end of this experiment and plotted on a separate Y-axis.

lysosomes in U2OS cells = test: Ratiometric analysis of lysosomal pH (Oregon Green 488 dextran); type: cell-based, human; conditions: 1 μM
Procedure: U2OS cells were cultured for 4 hr with vehicle, 1 μM compound 1, or 50 mM ammonium chloride. The results of two independent experiments were averaged together. Data were analyzed by one-way ANOVA (p=0.0005) and Tukey's post-hoc test (p<0.0001). Scale bars indicate 10 μm. The results of three independent experiments were averaged together. […] Cells that had been transfected with LAMP1-RFP expression vector were then stained with LysoSensor Green DND-189, a fluorescent probe that fluoresces only in the acidic compartments of live cells. […] Bars represent 20 μm.
To determine the pH of individual lysosomes, dual-wavelength ratio imaging was conducted as previously describe (102), with minor modifications. U2OS and RAW264.7 cells were cultured in imaging chambers (Cellvis, Mountain View Calif., Cat #C4-1.5/h-N) in complete culture medium at 37° C. and 5% CO2. Cells were incubated overnight with 50 μg/mL Oregon Green 488 dextran (Invitrogen, Carlsbad, Calif., D7170). The following day, the cells were cultured with dextran-free complete culture medium for at least 2 h to ensure lysosomal targeting of the probe. Cells were then cultured with compound 1 for the indicated times and concentrations. […]

melanoma A375 cells [5] = test: Cytoplasmic vacuolization of A375 cells; type: cell-based, human

SMILES: C1=Nc2ccccc2/C1=C/NNc1nc(Nc2ccccc2)nc(N2CCOCC2)n1 [compound 1]
- Ill effects on mice (melanoma A375 tumors [1]): no exhibited ill effects
- Expansion of preformed tumors (melanoma A375 tumors [1]; inbred nude mice): inhibited by compound 1 in a dose dependent manner
- Effect on Melanoma A375 cells (melanoma A375 cells [2]): killed
- Expansion of preformed tumors (melanoma A375 tumors [3]; 20 or 40 mg/kg intraperitoneally daily, outbred nude mice): inhibited by compound 1 in a dose dependent manner; also recorded: inhibited growth of tumors
- Ill effects on mice (melanoma A375 tumors [3]; mice weighed each day during injections): no visible ill effects
- EC50 [4]: > 10 µM
- Time for lysosomal motility and size to revert after removal of the compound (U2OS cells; live cells expressing LAMP1-RFP): within one hour
- Increase in size of LAMP1-labeled vacuoles (U2OS cells; within 20 hours, 1 μM): 9 fold
- Mean pH of lysosomes (lysosomes in U2OS cells; 4 h, untreated cells 5.3): 5.0
- Effect on lysosomal acidity (lysosomes in U2OS cells; 4 hours): did not affect lysosomal acidity significantly
- Cytoplasmic vacuolization of A375 cells (melanoma A375 cells [5]): induced extensive cytoplasmic vacuolization
